# Assays:
# Assay type in all cases: in vivo
# [1] = system: spring wheat seeds: contamination by mold, alternaria, bacteriosis; experiment: Phytopathological properties (seed contamination) of treated spring wheat seeds
# Description: (§1) Experimental versions—soaking seeds in BHMPA solutions and solutions of BHMPA Ca, Mg, Na, Co, Mn, Cu, and Zn salts at 1·10^−6-1·10^−12% concentrations (doses). The studies were conducted in laboratory in Petri dishes; seed bed—two layers of filter paper. 50 seeds soaked in water (control) and in the solutions of the tested compounds (experimental) were placed into each dish. Wheat, corn, and rice seeds were exposed for one hour.
# (§2) Analysis was conducted according to the government standards GOST 12038-84 “Crop seeds. Technical conditions for determining the germination energy and germination rate”, GOST 12044-93 “Crop seeds. Methods for determining disease contamination.”
# (§3) The study of the effect of pre-sowing seed treatment with BHMPA was conducted on winter wheat (Kazan-500 variety) and spring wheat (Ekada-66 variety).
# The effect of the treatment with BHMPA on phytopathological properties of spring wheat seeds was examined and the results are presented in Table II. […] The biological activity in this case was 64.4%. In other samples, contamination of the seeds also remained lower than that of the control. Treatment of seeds with BHMPA solutions reduced their overall contamination.
# [2] = system: winter wheat (Kazan-500 variety); experiment: Winter wheat seed treatment with BHMPA: germination energy, germination rate, plant height, roots
# Description: (§4) Control—Soaking Seeds in Water;
# as §1, §2
# (§5) Seed germination energy and rate were calculated in percent as an arithmetic mean of the four experimental results (germination energy on the 4th day, wheat germination on the 8th day, rice and corn germination—on the 7th day). Germination was determined based on the germinating power indicators (length of the roots and sprouts and their wet and dry mass per 100 shoots).
# as §3
# [3] = system: spring wheat (Ekada-66 variety); experiment: Spring wheat seed treatment: germination rate and plant height (laboratory, Petri dishes); conditions: for Germination rate % 4th day / Germination rate % 8th day / Plant height: spring wheat
# Description: as §4, §1, §2, §5, §3
structure (smiles),measurement,setting,value
"O=P(O)(CO)CO [BHMPA, bis-(hydroxymethyl)-phosphinic acid]",Biological efficacy,[1]; 1·10^−7% solution,44.1%
same,Contamination by type: alternaria,[1]; 1·10^−7% solution,24%
same,Contamination by type: bacteriosis,[1]; 1·10^−7% solution,6%
same,Contamination by type: mold,[1]; 1·10^−7% solution,3%
same,Overall contamination,[1]; 1·10^−7% solution,33.0%
same,Biological efficacy,[1]; 1·10^−8% solution,42.4%
same,Contamination by type: alternaria,[1]; 1·10^−8% solution,26%
same,Contamination by type: bacteriosis,[1]; 1·10^−8% solution,6%
same,Contamination by type: mold,[1]; 1·10^−8% solution,2%
same,Overall contamination,[1]; 1·10^−8% solution,34.0%
same,Biological efficacy,[1]; 1·10^−9% solution,64.4%
same,Contamination by type: alternaria,[1]; 1·10^−9% solution,14%
same,Contamination by type: bacteriosis,[1]; 1·10^−9% solution,4%
same,Contamination by type: mold,[1]; 1·10^−9% solution,3%
same,Overall contamination,[1]; 1·10^−9% solution,21.5%
same,overall seed contamination lower than that of the control by,"[1]; 1·10^−9% solution, control 59%",38%
same,Overall contamination,"[1]; 1·10^−9% solution, listed as bis-(hydroxymethyl)-phosphinic acid",21.0%
same,Biological efficacy,[1]; 1·10^−10% solution,61.0%
same,Contamination by type: alternaria,[1]; 1·10^−10% solution,16%
same,Contamination by type: bacteriosis,[1]; 1·10^−10% solution,4%
same,Contamination by type: mold,[1]; 1·10^−10% solution,3%
same,Overall contamination,[1]; 1·10^−10% solution,23.0%
same,Biological efficacy,[1]; 1·10^−11% solution,22.0%
same,Contamination by type: alternaria,[1]; 1·10^−11% solution,42%
same,Contamination by type: bacteriosis,[1]; 1·10^−11% solution,2%
same,Contamination by type: mold,[1]; 1·10^−11% solution,2%
same,Overall contamination,[1]; 1·10^−11% solution,46.0%
same,Biological efficacy,[1]; 1·10^−12% solution,44.1%
same,Contamination by type: alternaria,[1]; 1·10^−12% solution,28%
same,Contamination by type: bacteriosis,[1]; 1·10^−12% solution,3%
same,Contamination by type: mold,[1]; 1·10^−12% solution,2%
same,Overall contamination,[1]; 1·10^−12% solution,33.0%
same,Germination energy,[2]; 1·10^−7% solution,82.5%
same,Germination rate,[2]; 1·10^−7% solution,84.0%
same,Number of roots,[2]; 1·10^−7% solution,3.3
same,Plant height,[2]; 1·10^−7% solution,11.3 cm
same,Root length,[2]; 1·10^−7% solution,11.7 cm
same,Germination energy,[2]; 1·10^−8% solution,86.0%
same,Germination rate,[2]; 1·10^−8% solution,86.0%
same,Number of roots,[2]; 1·10^−8% solution,3.1
same,Plant height,[2]; 1·10^−8% solution,12.5 cm
same,Root length,[2]; 1·10^−8% solution,12.1 cm
same,Germination energy,[2]; 1·10^−9% solution,87.4%
same,Germination rate,[2]; 1·10^−9% solution,96.0%
same,Number of roots,[2]; 1·10^−9% solution,3.4
same,Plant height,[2]; 1·10^−9% solution,13.6 cm
same,Root length,[2]; 1·10^−9% solution,12.3 cm
same,Germination energy,[2]; 1·10^−10% solution,85.7%
same,Germination rate,[2]; 1·10^−10% solution,90.0%
same,Number of roots,[2]; 1·10^−10% solution,3.2
same,Plant height,[2]; 1·10^−10% solution,11.2 cm
same,Root length,[2]; 1·10^−10% solution,11.5 cm
same,Germination energy,[2]; 1·10^−11% solution,83.9%
same,Germination rate,[2]; 1·10^−11% solution,92.0%
same,Number of roots,[2]; 1·10^−11% solution,3.3
same,Plant height,[2]; 1·10^−11% solution,12.4 cm
same,Root length,[2]; 1·10^−11% solution,11.3 cm
same,Germination energy,[2]; 1·10^−12% solution,90.0%
same,Germination rate,[2]; 1·10^−12% solution,95.0%
same,Number of roots,[2]; 1·10^−12% solution,3.3
same,Plant height,[2]; 1·10^−12% solution,14.1 cm
same,Root length,[2]; 1·10^−12% solution,11.9 cm
same,Germination rate % 4th day,[3]; 1·10^−7% solution,28.0%
same,Germination rate % 8th day,[3]; 1·10^−7% solution,70.0%
same,Plant height,[3]; 1·10^−7% solution,14.1 cm
same,Germination rate % 4th day,[3]; 1·10^−9% solution,33.0%
same,Germination rate % 8th day,[3]; 1·10^−9% solution,81.5%
same,Plant height,[3]; 1·10^−9% solution,14.3 cm
same,Germination rate % 4th day,[3]; 1·10^−12% solution,32.5%
same,Germination rate % 8th day,[3]; 1·10^−12% solution,81.3%
same,Plant height,[3]; 1·10^−12% solution,14.4 cm
same,growth-regulating ability compared with Melaphen,"[3]; wheat, Tables I-III, 1·10^−9%, 1·10^−11% and 1·10^−12%",lesser impact than that of the prototype Melaphen

# Reference: US10781224B2, “Bis(oxymethyl)phosphinic acid and biogenic metal salts thereof as regulators of plant growth and development” (priority 2016, dated 2020)
